This note sets out measurements from patent publication US20250163104A1, “MACROCYCLIC IMMUNOMODULATORS” (priority 2021, published 2025).

Where a SMILES comes first, the peptide text is derived from it. Bridges are numbered along the chain shown (N, C = ends). [ ]: non-standard residue; d: D form. The star is where a group is joined. ξ: configuration not given here. Phe(4-COOH) = N[C@@H](Cc1ccc(C(=O)O)cc1)C(=O)O; Asp(3,3-Me2) = CC(C)(C(=O)O)[C@H](N)C(=O)O; Bip = N[C@@H](Cc1ccc(-c2ccccc2)cc1)C(=O)O; Phe(3-Me) = Cc1cccc(C[C@H](N)C(=O)O)c1; Val(3-OH) = CC(C)(O)[C@H](N)C(=O)O; 3Pal = N[C@@H](Cc1cccnc1)C(=O)O; 4Pal = N[C@@H](Cc1ccncc1)C(=O)O; Cha = N[C@@H](CC1CCCCC1)C(=O)O; Cit = NC(=O)NCCC[C@H](N)C(=O)O; Ile(3ξ) = CCC(C)[C@H](N)C(=O)O; dCha = N[C@H](CC1CCCCC1)C(=O)O; Carboxymethyl = O=C(O)C*; Orn = NCCC[C@H](N)C(=O)O; Dab = NCC[C@H](N)C(=O)O; Dap = NC[C@H](N)C(=O)O; Piv = CC(C)(C)C(=O)*

The assay concerns the target T1, human PD-1 / PD-L1-Ig binding on Jurkat cell line over-expressing human PD-1 (Jurkat-PD-1) (Homo sapiens, UniProt Q15116).
T1 construct: expressed in transfected cells; host or cells: Jurkat
In words: Jurkat-PD-1 Cell Binding High-Content Screening Assay (CBA). The assay is classed as cell-based. As to conditions: Jurkat-PD-1 cells, PE-labeled PD-L1-Ig 20 nM final; read-out: Jurkat HPD1_PDL1 IC50. An outline of the steps: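 Jurkat cells over-expressing human PD-1, in DMEM/10% FCS, pre-incubated with compound 2 h at 37° C. PE-labeled human PD-L1-Ig (20 nM final) added for 1 h; cells fixed in paraformaldehyde with Hoechst 33342 nuclear stain, washed, and bound fluorescence quantified by high-content imaging.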

T1 sequence (Q15116 25-288): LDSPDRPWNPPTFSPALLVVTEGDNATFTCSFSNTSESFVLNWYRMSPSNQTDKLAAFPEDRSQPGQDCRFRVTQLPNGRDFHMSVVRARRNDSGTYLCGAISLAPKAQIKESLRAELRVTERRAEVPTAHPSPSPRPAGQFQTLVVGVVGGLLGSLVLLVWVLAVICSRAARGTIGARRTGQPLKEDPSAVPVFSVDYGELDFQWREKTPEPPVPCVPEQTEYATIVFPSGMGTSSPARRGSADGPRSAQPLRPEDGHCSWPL

Regarding `CC[C@H](C)[C@@H]1NC(=O)[C@H](Cc2ccc(-c3ccccc3)cc2)NC(=O)[C@H](C(C)C)NC(=O)[C@H](Cc2c[nH]c3ccccc23)NC(=O)[C@H](CC(=O)O)NC(=O)[C@H](Cc2ccc(O)cc2)NC(=O)[C@H](CC(N)=O)NC(=O)CSC[C@@H](C(=O)N[C@@H](C)C(N)=O)NC(=O)[C@H]([C@@H](C)O)NC(=O)[C@H](C(C)C)NC(=O)[C@H](CC2CCCCC2)NC(=O)[C@H](CCCNC(=N)N)NC(=O)[C@@H](CC(C)C)NC(=O)[C@H](CCCN)NC1=O` [Compound 1147] ({CH2CO}-NYDWV[Bip]I[Orn][dL]R[Cha]VTCA-NH2; thioether N-14), the IC50 turned out to be 22.7 nM.

For the molecule `CCCC[C@H]1NC(=O)[C@H](CCCN)NC(=O)[C@H](CCCNC(N)=O)NC(=O)[C@H](Cc2ccc(-c3ccccc3)cc2)NC(=O)[C@H](C(C)C)NC(=O)[C@H](Cc2c[nH]c3ccccc23)NC(=O)[C@H](CC(=O)O)NC(=O)[C@H](Cc2ccncc2)NC(=O)[C@H](Cc2ccc(OCC(=O)O)cc2)NC(=O)CSC[C@@H](C(=O)N[C@@H](C)C(N)=O)NC(=O)[C@H]([C@@H](C)O)NC(=O)[C@H](C(C)C)NC(=O)[C@H](CC2CCCCC2)NC(=O)[C@H](CCN)NC1=O` [Compound 1702], the 50% inhibitory concentration (IC50) was determined as 17 nM.

Consider `CCC(C)[C@@H]1NC(=O)[C@H](Cc2ccc(-c3ccccc3)cc2)NC(=O)[C@H](C(C)C)NC(=O)[C@H](Cc2cccc(C)c2)NC(=O)[C@H](CC(=O)O)NC(=O)[C@H](Cc2ccc(C(=O)O)cc2)NC(=O)[C@H](Cc2ccncc2)NC(=O)CSC[C@@H](C(N)=O)NC(=O)[C@H](CC(=O)O)NC(=O)[C@H](C(C)C)NC(=O)[C@H](CC2CCCCC2)NC(=O)[C@H](CCN)NC(=O)[C@@H](CC(C)C)NC(=O)[C@H](CCCN)NC1=O` (stereo partly drawn) [Compound 2278] ({CH2CO}-[4Pal][Phe(4-COOH)]D[Phe(3-Me)]V[Bip][Ile(3ξ)][Orn][dL][Dab][Cha]VDC-NH2; thioether N-14), for which the IC50 came out at 37.6 nM.

As to `CC[C@H](C)[C@@H]1NC(=O)[C@H](Cc2ccc(-c3ccccc3)cc2)NC(=O)[C@H](C(C)C)NC(=O)[C@H](Cc2cccc(C)c2)NC(=O)[C@H](CC(=O)O)NC(=O)[C@H](Cc2ccc(C(=O)O)cc2)NC(=O)[C@H](Cc2ccncc2)NC(=O)CSC[C@@H](C(=O)N[C@@H](CCN)C(N)=O)NC(=O)[C@H]([C@@H](C)O)NC(=O)[C@H](C(C)C)NC(=O)[C@H](CC2CCCCC2)NC(=O)[C@H](CCN)NC(=O)[C@@H](CC(C)C)NC(=O)[C@H](CCCN)NC1=O` [Compound 2007], the IC50 was determined as 24.3 nM.

On to `CC[C@H](C)[C@@H]1NC(=O)[C@H](Cc2ccc(-c3ccccc3)cc2)NC(=O)[C@H](C(C)C)NC(=O)[C@H](Cc2c[nH]c3ccccc23)NC(=O)[C@H](CC(=O)O)NC(=O)[C@H](Cc2ccc(C(=O)O)cc2)NC(=O)[C@H](CN)NC(=O)CSC[C@@H](C(=O)N[C@@H](C)C(N)=O)NC(=O)[C@H]([C@@H](C)O)NC(=O)[C@H](C(C)C)NC(=O)[C@H](CC(C)C)NC(=O)[C@H](CCN)NC(=O)[C@@H](CC(C)C)NC(=O)[C@H](CCCN)NC1=O` [Compound 1052] ({CH2CO}-[Dap][Phe(4-COOH)]DWV[Bip]I[Orn][dL][Dab]LVTCA-NH2; thioether N-14), for which the IC50 was determined as 11.8 nM.

For `CC(C)C[C@H]1NC(=O)[C@H](CCCN)NC(=O)[C@H](C(C)C)NC(=O)[C@H](Cc2ccc(-c3ccccc3)cc2)NC(=O)[C@H](C(C)C)NC(=O)[C@H](Cc2c[nH]c3ccccc23)NC(=O)[C@H](CC(=O)O)NC(=O)[C@H](Cc2ccc(OCC(=O)O)cc2)NC(=O)[C@H](CN)NC(=O)CSC[C@@H](C(=O)N[C@@H](C)C(N)=O)NC(=O)[C@H]([C@@H](C)O)NC(=O)[C@H](C(C)C)NC(=O)[C@H](Cc2ccccc2)NC(=O)[C@H](CCN)NC1=O` [Compound 1661] ({CH2CO}-[Dap]Y(Carboxymethyl)DWV[Bip]V[Orn][dL][Dab]FVTCA-NH2; thioether N-14), the 50% inhibitory concentration (IC50) amounted to 17 nM.

With `Cc1cccc(C[C@@H]2NC(=O)[C@H](CC(=O)O)NC(=O)[C@H](Cc3ccc(C(=O)O)cc3)NC(=O)[C@H](Cc3ccncc3)NC(=O)CSC[C@@H](C(=O)N[C@@H](CC(N)=O)C(N)=O)NC(=O)[C@H](CCC(N)=O)NC(=O)[C@H](C(C)C)NC(=O)[C@H](CC3CCCCC3)NC(=O)[C@H](CCN)NC(=O)[C@@H](CC(C)C)NC(=O)[C@H](CCCN)NC(=O)[C@H](Cc3ccc(OCC(=O)O)cc3)NC(=O)[C@H](Cc3ccc(-c4ccccc4)cc3)NC(=O)[C@H](Cc3ccc(OCC(=O)O)cc3)NC2=O)c1` [Compound 2305] ({CH2CO}-[4Pal][Phe(4-COOH)]D[Phe(3-Me)]Y(Carboxymethyl)[Bip]Y(Carboxymethyl)[Orn][dL][Dab][Cha]VQCN-NH2; thioether N-14), the IC50 was 10.2 nM.

In the case of `CC(C)[C@@H]1NC(=O)[C@H](Cc2c[nH]c3ccccc23)NC(=O)[C@H](CC(=O)O)NC(=O)[C@H](Cc2ccc(O)cc2)NC(=O)[C@H](CC(N)=O)NC(=O)CSC[C@@H](C(=O)N[C@@H](C)C(N)=O)NC(=O)[C@H]([C@@H](C)O)NC(=O)[C@H](C(C)C)NC(=O)[C@H](CC2CCCCC2)NC(=O)[C@H](CCN)NC(=O)[C@@H](CC2CCCCC2)NC(=O)[C@H](CCCN)NC(=O)[C@H](CCCNC(N)=O)NC(=O)[C@H](Cc2ccc(-c3ccccc3)cc2)NC1=O` [Compound 1647] ({CH2CO}-NYDWV[Bip][Cit][Orn][dCha][Dab][Cha]VTCA-NH2; thioether N-14), the IC50 was 50.9 nM.

On to `Cc1cccc(C[C@@H]2NC(=O)[C@H](CC(=O)O)NC(=O)[C@H](Cc3ccc(C(=O)O)cc3)NC(=O)[C@H](Cc3ccncc3)NC(=O)CSC[C@@H](C(=O)N[C@@H](CC(N)=O)C(N)=O)NC(=O)[C@H](CO)NC(=O)[C@H](C(C)C)NC(=O)[C@H](CC3CCCCC3)NC(=O)[C@H](CCN)NC(=O)[C@@H](CC(C)C)NC(=O)[C@H](CCCN)NC(=O)[C@H](Cc3ccc(O)cc3)NC(=O)[C@H](Cc3ccc(-c4ccccc4)cc3)NC(=O)[C@H](Cc3ccc(O)cc3)NC2=O)c1` [Compound 2284] ({CH2CO}-[4Pal][Phe(4-COOH)]D[Phe(3-Me)]Y[Bip]Y[Orn][dL][Dab][Cha]VSCN-NH2; thioether N-14), for which the IC50 is 4.1 nM.

Turning to `Cc1cccc(C[C@@H]2NC(=O)[C@H](CC(=O)O)NC(=O)[C@H](Cc3ccc(OCC(=O)O)cc3)NC(=O)[C@H](CN)NC(=O)CSC[C@@H](C(=O)N[C@@H](CCNC(=O)C(C)(C)C)C(N)=O)NC(=O)[C@H](CCCN)NC(=O)[C@H](C(C)C)NC(=O)[C@H](CC3CCCCC3)NC(=O)[C@H](CCN)NC(=O)[C@@H](CC(C)C)NC(=O)[C@H](CCCN)NC(=O)[C@H](Cc3ccc(O)cc3)NC(=O)[C@H](Cc3ccc(-c4ccccc4)cc3)NC(=O)[C@H](Cc3ccc(O)cc3)NC2=O)c1` [Compound 2042] ({CH2CO}-[Dap]Y(Carboxymethyl)D[Phe(3-Me)]Y[Bip]Y[Orn][dL][Dab][Cha]V[Orn]C[Dab](Piv)-NH2; thioether N-14), the IC50 amounted to 6.5 nM.

On to `CCC(C)[C@@H]1NC(=O)[C@H](Cc2ccc(-c3ccccc3)cc2)NC(=O)[C@H](C(C)C)NC(=O)[C@H](Cc2cccc(C)c2)NC(=O)[C@H](CC(=O)O)NC(=O)[C@H](Cc2cccnc2)NC(=O)[C@H](Cc2ccccc2)NC(=O)CSC[C@@H](C(=O)N[C@@H](C)C(N)=O)NC(=O)[C@H]([C@@H](C)O)NC(=O)[C@H](C(C)C)NC(=O)[C@H](CC2CCCCC2)NC(=O)[C@H](CCN)NC(=O)[C@@H](CC(C)C)NC(=O)[C@H](CCCN)NC1=O` (stereo partly drawn) [Compound 2234] ({CH2CO}-F[3Pal]D[Phe(3-Me)]V[Bip][Ile(3ξ)][Orn][dL][Dab][Cha]VTCA-NH2; thioether N-14), for which the IC50 was determined as 70.8 nM.

Consider `CC[C@H](C)[C@@H]1NC(=O)[C@H](Cc2ccc(-c3ccccc3)cc2)NC(=O)[C@H](C(C)C)NC(=O)[C@H](Cc2cccc(C)c2)NC(=O)[C@H](CC(=O)O)NC(=O)[C@H](Cc2ccc(C(=O)O)cc2)NC(=O)[C@H](Cc2ccncc2)NC(=O)CSC[C@@H](C(=O)N[C@@H](C)C(N)=O)NC(=O)[C@H]([C@@H](C)O)NC(=O)[C@H](C(C)C)NC(=O)[C@H](CC2CCCCC2)NC(=O)[C@H](CCN)NC(=O)[C@@H](CC(C)C)NC(=O)[C@H](CCCN)NC1=O` [Compound 1192], for which the IC50 amounted to 7.1 nM.

In the case of `CCC(C)[C@@H]1NC(=O)[C@H](Cc2ccc(-c3ccccc3)cc2)NC(=O)[C@H](C(C)C)NC(=O)[C@H](Cc2cccc(C)c2)NC(=O)[C@H](CC(=O)O)NC(=O)[C@H](Cc2ccc(-c3cccc(C(=O)O)c3)cc2)NC(=O)[C@H](CC(N)=O)NC(=O)CSC[C@@H](C(=O)N[C@@H](C)C(N)=O)NC(=O)[C@H]([C@@H](C)O)NC(=O)[C@H](C(C)C)NC(=O)[C@H](CC2CCCCC2)NC(=O)[C@H](CCN)NC(=O)[C@@H](CC(C)C)NC(=O)[C@H](CCCN)NC1=O` (stereo partly drawn) [Compound 2222], the IC50 came to 25 nM.

On to `Cc1cccc(C[C@@H]2NC(=O)[C@H](CC(=O)O)NC(=O)[C@H](Cc3ccc(OCC(=O)O)cc3)NC(=O)[C@H](CCN)NC(=O)CSC[C@@H](C(=O)N[C@@H](CCN)C(N)=O)NC(=O)[C@H](CO)NC(=O)[C@H](C(C)(C)O)NC(=O)[C@H](CC3CCCCC3)NC(=O)[C@H](CCN)NC(=O)[C@@H](CC(C)C)NC(=O)[C@H](C(C)(C)C(=O)O)NC(=O)[C@H](Cc3ccc(OCC(=O)O)cc3)NC(=O)[C@H](Cc3ccc(-c4ccccc4)cc3)NC(=O)[C@H](Cc3ccc(OCC(=O)O)cc3)NC2=O)c1` [Compound 2073] ({CH2CO}-[Dab]Y(Carboxymethyl)D[Phe(3-Me)]Y(Carboxymethyl)[Bip]Y(Carboxymethyl)[Asp(3,3-Me2)][dL][Dab][Cha][Val(3-OH)]SC[Dab]-NH2; thioether N-14), for which the IC50 came out at 22.2 nM.

On to `Cc1cccc(C[C@@H]2NC(=O)[C@H](CC(=O)O)NC(=O)[C@H](Cc3ccc(OCC(=O)O)cc3)NC(=O)[C@H](CN)NC(=O)CSC[C@@H](C(=O)N[C@@H](CCC(=O)O)C(=O)O)NC(=O)[C@H]([C@@H](C)O)NC(=O)[C@H](C(C)C)NC(=O)[C@H](CC3CCCCC3)NC(=O)[C@H](CCN)NC(=O)[C@@H](CC(C)C)NC(=O)[C@H](CCCN)NC(=O)[C@H](CCCNC(N)=O)NC(=O)[C@H](Cc3ccc(-c4ccccc4)cc3)NC(=O)[C@H](C(C)C)NC2=O)c1` [Compound 1301] ({CH2CO}-[Dap]Y(Carboxymethyl)D[Phe(3-Me)]V[Bip][Cit][Orn][dL][Dab][Cha]VTCE-OH; thioether N-14), for which the IC50 came out at 5.9 nM.
